Test [1] addresses T1, hsst2 (Homo sapiens, UniProt P30874).
T1 construct: expressed in transfected cells
As to the kind of experiment: Somatostatin receptor radioligand binding assay, hsst2. The settings on record: CHO-K1 membranes, [125I]MK-678; read-out: hsst2 Ki. On the procedure: (§1) Specificity and selectivity of the somatostatin analogues used to synthesize the somatostatin-dopamine chimers were determined by a radioligand binding assay on CHO-K1 cells stably transfected with each of the SSTR subtypes, as follows. Somatostatin analogs are also described in U.S. Patent Application Publication No. 02210006790. The complete coding sequences of genomic fragments of the SSTR 1 (e.g., Genbank accession No. M81829), SSTR 2 (e.g., Genbank accession No. M81830), SSTR 3 (e.g., Genbank accession No. L07062), and SSTR 4 (e.g., Genbank accession No. AL049651) genes and a cDNA clone for SSTR 5 (e.g., Genbank accession No. D16827) was subcloned into the mammalian expression vector pCMV (Life Technologies, Milano, Italy). Other SSTR sequences are known to the skilled artisan. Clonal cell lines stably expressing SSTR's 1-5 were obtained by transfection into CHO-K1 cells (ATCC, Manassas, Va., USA) using the calcium phosphate co-precipitation method (Davis L, et al., 1994 In: Basic methods in Molecular Biology, 2nd edition, Appleton & Lange, Norwalk, Conn., USA: 611-646). The plasmid pRSV-neo (ATCC) was included as a selectable marker. Clonal cell lines were selected in RPMI 1640 media containing 0.5 mg/mL of G418 (Life Technologies, Milano, Italy), ring cloned, and expanded into culture.
(§2) Membranes for in vitro receptor binding assays were obtained by homogenizing the CHO-K1 cells expressing the SSTR's subtypes in ice-cold 50 mM Tris-HCl and centrifuging twice at 39,000 g (10 min), with an intermediate resuspension in fresh buffer. The final pellets were resuspended in 10 mM Tris-HCl for assay.
(§3) For the SSTR 2 assay, 0.05 nM [^125I]MK-678 was employed as the radioligand and the incubation time was 90 minutes at 25° C. The incubations were terminated by rapid filtration through GF/C glass microfiber filters (Whatman Co.) (pre-soaked in 0.3% polyethylenimine) using a BRANDEL filtration manifold. Each tube and filter was washed three times with 5 mL aliquots of ice-cold buffer. Specific binding was defined as the total radioligand bound minus that bound in the presence of 1000 nM SS-14 for SSTR 1, 3, 4, and 5, or 1000 nM MK-678 for SSTR2.

Test [2] addresses T2, hsst3 (Homo sapiens, UniProt P32745).
T2 construct: expressed in transfected cells
Briefly: Somatostatin receptor radioligand binding assay, hsst3. On the procedure: as §1, §2
(§4) For the SSTR 1, 3, 4, and 5 assays, aliquots of the membrane preparations were incubated 90 minutes at 25° C. with 0.05 nM [^125I-Tyr11]SS-14 in 50 mM HEPES (pH 7.4) containing 10 mg/mL BSA, 5 mM MgCl2, 200 KIU/mL Trasylol, 0.02 mg/mL bacitracin, and 0.02 mg/mL phenylmethylsuphonyl fluoride. The final assay volume was 0.3 mL.
as §3
(§5) Using the discussed assays, the inhibition constants (Ki) for the five human somatostatin receptors (hSSTR1-hSSTR5) and the dopamine-2 receptor (hUTII and hDA2) were measured for the exemplified somatostatin-dopamine conjugates, as follows: […]

Test [3] deals with T3, hsst5 (Homo sapiens, UniProt P35346).
T3 construct: expressed in transfected cells
Briefly: Somatostatin receptor radioligand binding assay, hsst5. The conditions noted are these: CHO-K1 membranes, [125I-Tyr11]SS-14. On the procedure: as §1, §2, §4, §3

In test [4] the target is T4, hUTII (Homo sapiens, UniProt Q9UKP6).
T4 sequence (Q9UKP6 1-389): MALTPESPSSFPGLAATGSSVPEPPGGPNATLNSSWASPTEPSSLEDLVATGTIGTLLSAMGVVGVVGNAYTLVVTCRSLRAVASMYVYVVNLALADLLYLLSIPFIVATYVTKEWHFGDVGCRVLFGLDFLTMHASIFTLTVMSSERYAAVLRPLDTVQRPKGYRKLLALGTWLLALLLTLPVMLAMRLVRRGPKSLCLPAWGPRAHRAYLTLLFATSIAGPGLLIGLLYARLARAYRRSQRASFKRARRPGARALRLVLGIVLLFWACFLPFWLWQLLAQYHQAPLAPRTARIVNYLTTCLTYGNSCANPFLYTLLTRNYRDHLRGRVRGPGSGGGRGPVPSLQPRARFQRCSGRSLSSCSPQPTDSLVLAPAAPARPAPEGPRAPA
As to the kind of experiment: hUTII inhibition constant. In kind it is binding. The settings on record: read-out: hUTII Ki. On the procedure:
as §5

Test [5] has as its target hDA2. Briefly: Dopamine-2 receptor radioligand binding assay. Also noted: species or system human. The conditions noted are these: [3H]spiperone. On the procedure: Specificity and selectivity for the dopamine-2 receptor of the dopamine analogues used to synthesize the somatostatin-dopamine chimers may be determined by a radioligand binding assay as follows.
Crude membranes were prepared by homogenization of frozen rat corpus striatum (Zivic Laboratories, Pittsburgh, Pa., USA) in 20 mL of ice-cold 50 mM Tris-HCl with a Brinkman Polytron cell disrupter (setting 6, 15 sec). Buffer was added to obtain a final volume of 40 mL, and the homogenate was centrifuged in a Sorval SS-34 rotor at 39,000 g for 10 minutes at 0-4° C. The resulting supernatant was decanted and discarded. The pellet was rehomogenized in ice-cold buffer, pre-incubated at 37° C. for 10 min, diluted, and centrifuged as before. The final pellet was resuspended in buffer and held on ice for the receptor binding assay.
For assay, aliquots of the washed membrane preparations and test compounds were incubated for 15 minutes (37° C.) with 0.25 nM [^3HI]spiperone (16.5 Ci.mmol, New England Nuclear, Boston, Mass., USA) in 50 mM Tris HCl, 120 mM NaCl, 5 mM KCl, 2 mM CaCl2, 1 mM MgCl2. The final assay volume was 1.0 mL. The incubations were terminated by rapid filtration through GF/B glass fibre filters using a Brandel filtration manifold. Each tube and filter was then washed three times with 5-mL aliquots of ice-cold buffer. Specific binding was defined as the total radioligand bound minus that bound in the presence of 1000 nM (+) butaclamol.
as §5

[6] abbreviates: CHO-K1 membranes, [125I-Tyr11]SS-14, read-out: hsst3 Ki.

Like-named read-outs stand apart in the source and are kept apart here. Numbered stars: 1 amine (or outer) side, 2 acyl side, 3 side chain; on linkers, the order of the positions; unused ones are H or OH. Bridge positions count the residues as written; N and C are the ends. Square brackets hold non-standard residues; d marks the D form. Peptide text beside a SMILES is read from it. * marks the point of attachment. X1 = CCCN1C[C@H](CSCC(=O)*)C[C@@H]2c3cccc4[nH]cc(c34)C[C@H]21; X2 = CN1C[C@H](CSCC(=O)*)C[C@@H]2c3cccc4[nH]cc(c34)C[C@H]21; Pipz(1-CH2CO,4-CH2CH2NH) = O=C(CN1CCN(CCN[*:1])CC1)[*:2]; Tyr(3-I) = N[C@@H](Cc1ccc(O)c(I)c1)C(=O)O; Dopa = N[C@@H](Cc1ccc(O)c(O)c1)C(=O)O; Abu = CC[C@H](N)C(=O)O; AEEA = NCCOCCOCC(=O)O

T1 sequence (P30874 whole entry): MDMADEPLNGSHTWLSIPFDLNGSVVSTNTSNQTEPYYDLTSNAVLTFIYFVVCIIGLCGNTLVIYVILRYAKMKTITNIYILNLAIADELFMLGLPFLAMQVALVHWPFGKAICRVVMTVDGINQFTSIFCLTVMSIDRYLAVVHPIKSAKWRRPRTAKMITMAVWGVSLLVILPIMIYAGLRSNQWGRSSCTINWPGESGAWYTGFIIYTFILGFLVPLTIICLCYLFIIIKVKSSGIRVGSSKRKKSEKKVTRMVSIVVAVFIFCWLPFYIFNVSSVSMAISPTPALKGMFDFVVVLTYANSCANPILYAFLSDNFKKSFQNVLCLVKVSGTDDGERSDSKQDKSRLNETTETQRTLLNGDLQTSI
T2 sequence (P32745 whole entry): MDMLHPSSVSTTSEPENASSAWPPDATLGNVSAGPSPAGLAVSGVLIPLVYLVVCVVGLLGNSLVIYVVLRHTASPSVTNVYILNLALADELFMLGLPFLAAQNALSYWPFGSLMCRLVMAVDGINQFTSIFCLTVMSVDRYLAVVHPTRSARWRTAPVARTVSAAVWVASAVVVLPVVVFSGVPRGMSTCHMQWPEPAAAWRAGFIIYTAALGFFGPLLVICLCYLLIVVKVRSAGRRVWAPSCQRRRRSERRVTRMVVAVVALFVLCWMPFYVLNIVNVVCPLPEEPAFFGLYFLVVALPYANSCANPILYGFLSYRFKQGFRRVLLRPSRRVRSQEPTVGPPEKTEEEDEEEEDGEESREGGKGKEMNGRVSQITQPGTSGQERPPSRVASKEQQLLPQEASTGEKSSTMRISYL
T3 sequence (P35346 whole entry): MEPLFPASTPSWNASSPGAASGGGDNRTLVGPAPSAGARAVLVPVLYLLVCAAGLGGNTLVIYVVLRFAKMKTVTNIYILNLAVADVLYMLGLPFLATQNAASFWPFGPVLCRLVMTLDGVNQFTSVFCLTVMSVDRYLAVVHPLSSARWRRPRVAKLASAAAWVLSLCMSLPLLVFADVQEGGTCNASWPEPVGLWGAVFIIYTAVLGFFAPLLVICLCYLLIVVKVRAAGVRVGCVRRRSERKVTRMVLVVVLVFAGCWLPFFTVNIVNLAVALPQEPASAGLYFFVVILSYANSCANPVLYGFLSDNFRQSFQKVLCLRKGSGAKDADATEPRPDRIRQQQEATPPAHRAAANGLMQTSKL

As to `CC[C@@H]1NC(=O)[C@H](CCCCN)NC(=O)[C@@H](Cc2c[nH]c3ccccc23)NC(=O)[C@H](Cc2ccc(O)cc2)NC(=O)[C@@H](NC(=O)[C@@H](Cc2ccc(O)cc2)NC(=O)[C@@H](Cc2ccc(O)cc2)NC(=O)[C@H](CCCCN)NC(=O)CN2CCN(CCNC(=O)CSC[C@@H]3C[C@@H]4c5cccc6[nH]cc(c56)C[C@H]4N(C)C3)CC2)CSSC[C@@H](C(=O)N[C@H](C(N)=O)[C@@H](C)O)NC1=O` [Example 32] (X2-[Pipz(1-CH2CO,4-CH2CH2NH)]K[dY][dY]CY[dW]K[Abu]CT-NH2; disulfide 5-10), the Ki in test [1] was determined as 0.22 nM; in test [2], 45.6 nM; in test [3] (hsst5 Ki), 13.8 nM; in test [4], 267 nM; in test [5], 136 nM.
For the compound `CCCN1C[C@H](CSCC(=O)NCCCC[C@H](NC(=O)CSC[C@@H]2C[C@@H]3c4cccc5[nH]cc(c45)C[C@H]3N(CCC)C2)C(=O)N[C@H](Cc2ccccc2)C(=O)N[C@H]2CSSC[C@@H](C(=O)N[C@H](C(N)=O)[C@@H](C)O)NC(=O)[C@H](CC)NC(=O)[C@H](CCCCN)NC(=O)[C@@H](Cc3c[nH]c4ccccc34)NC(=O)[C@H](Cc3ccc(O)cc3)NC2=O)C[C@@H]2c3cccc4[nH]cc(c34)C[C@H]21` [Example 17], the Ki in test [1] worked out at 0.18 nM; in test [2] (setting [6]) it was 106 nM; in test [3] (read-out: hsst5 Ki) it was 54 nM; in test [4] it was 496 nM; in test [5], 17.6 nM.
Regarding `CC[C@@H]1NC(=O)[C@H](CCCCN)NC(=O)[C@@H](Cc2c[nH]c3ccccc23)NC(=O)[C@H](Cc2ccc(O)cc2)NC(=O)[C@@H](NC(=O)[C@@H](Cc2ccc(O)cc2)NC(=O)[C@@H](Cc2ccc(O)cc2)NC(=O)[C@H](CCCCN)NC(=O)COCCOCCNC(=O)CSC[C@@H]2C[C@@H]3c4cccc5[nH]cc(c45)C[C@H]3N(C)C2)CSSC[C@@H](C(=O)N[C@H](C(N)=O)[C@@H](C)O)NC1=O` [Example 34] ({X2-AEEA}-K[dY][dY]CY[dW]K[Abu]CT-NH2; disulfide 4-9), the Ki in test [1] came to 0.23 nM; in test [2], 48.4 nM; in test [3] (hsst5 Ki) it was 8.6 nM; in test [4], 211 nM; in test [5] it was 114 nM.
With `CC[C@@H]1NC(=O)[C@H](CCCCN)NC(=O)[C@@H](Cc2c[nH]c3ccccc23)NC(=O)[C@H](Cc2ccc(O)cc2)NC(=O)[C@@H](NC(=O)[C@@H](Cc2ccccc2)NC(=O)CN2CCN(CCNC(=O)CSC[C@@H]3C[C@@H]4c5cccc6[nH]cc(c56)C[C@H]4N(C)C3)CC2)CSSC[C@@H](C(=O)N[C@H](C(N)=O)[C@@H](C)O)NC1=O` [Example 38], the inhibitory constant (Ki) in test [1] stood at 0.35 nM; in test [2] (setting [6]), 61.9 nM; in test [3] (read-out: hsst5 Ki) it was 28.1 nM; in test [4], 1190 nM; in test [5], 411 nM.
For `CC[C@@H]1NC(=O)[C@H](CCCCN)NC(=O)[C@@H](Cc2c[nH]c3ccccc23)NC(=O)[C@H](Cc2ccc(O)cc2)NC(=O)[C@@H](NC(=O)[C@@H](Cc2ccccc2)NC(=O)[C@@H](N)Cc2ccc(O)c(O)c2)CSSC[C@@H](C(=O)N[C@H](C(N)=O)[C@@H](C)O)NC1=O` [Example 19], the Ki in test [1] turned out to be 0.41 nM; in test [2] (setting [6]), 146 nM; in test [3] (read-out: hsst5 Ki) it was 19.7 nM; in test [4] it was 2250 nM; in test [5] it was 3000 nM.
In the case of `CCCN1C[C@H](CSCC(=O)NCCN2CCN(CC(=O)NCCN3CCN(CC(=O)N[C@H](Cc4ccccc4)C(=O)N[C@H]4CSSC[C@@H](C(=O)N[C@H](C(N)=O)[C@@H](C)O)NC(=O)[C@H](CC)NC(=O)[C@H](CCCCN)NC(=O)[C@@H](Cc5c[nH]c6ccccc56)NC(=O)[C@H](Cc5ccc(O)cc5)NC4=O)CC3)CC2)C[C@@H]2c3cccc4[nH]cc(c34)C[C@H]21` [Example 36] (X1-[Pipz(1-CH2CO,4-CH2CH2NH)][Pipz(1-CH2CO,4-CH2CH2NH)][dF]CY[dW]K[Abu]CT-NH2; disulfide 4-9), the Ki in test [1] is 1.67 nM; in test [2] (setting [6]), 145 nM; in test [3] (read-out: hsst5 Ki), 53.5 nM; in test [4], 3090 nM; in test [5], 328 nM.
Consider `CCCN1C[C@H](CSCC(=O)NCCCC[C@@H](NC(=O)CSC[C@@H]2C[C@@H]3c4cccc5[nH]cc(c45)C[C@H]3N(CCC)C2)C(=O)N[C@H](Cc2ccc(O)cc2)C(=O)N[C@H](Cc2ccc(O)cc2)C(=O)N[C@H]2CSSC[C@@H](C(=O)N[C@H](C(N)=O)[C@@H](C)O)NC(=O)[C@H]([C@@H](C)O)NC(=O)[C@H](CCCCN)NC(=O)[C@@H](Cc3c[nH]c4ccccc34)NC(=O)[C@H](Cc3ccc(O)c(I)c3)NC2=O)C[C@@H]2c3cccc4[nH]cc(c34)C[C@H]21` [Example 16] (X1-[dK](X1)[dY][dY]C[Tyr(3-I)][dW]KTCT-NH2; disulfide 4-9), for which the Ki in test [1] came to 0.16 nM; in test [2] (setting [6]) it was 76.4 nM; in test [3] (read-out: hsst5 Ki) it was 7.43 nM; in test [4], 549 nM; in test [5], 8.56 nM.
On to `CCCN1C[C@H](CSCC(=O)N[C@@H](CCCCN)C(=O)N[C@H](Cc2ccc(O)cc2)C(=O)N[C@H](Cc2ccc(O)cc2)C(=O)N[C@H]2CSSC[C@@H](C(=O)N[C@H](C(N)=O)[C@@H](C)O)NC(=O)[C@H](CC)NC(=O)[C@H](CCCCN)NC(=O)[C@@H](Cc3c[nH]c4ccccc34)NC(=O)[C@H](Cc3ccc(O)cc3)NC2=O)C[C@@H]2c3cccc4[nH]cc(c34)C[C@H]21` [Example 35] (X1-K[dY][dY]CY[dW]K[Abu]CT-NH2; disulfide 4-9), for which the Ki in test [1] came out at 0.27 nM; in test [2] (setting [6]), 109 nM; in test [3] (read-out: hsst5 Ki) it was 13.6 nM; in test [4], 134 nM; in test [5], 55.8 nM.
The like results for `CC[C@@H]1NC(=O)[C@H](CCCCN)NC(=O)[C@@H](Cc2c[nH]c3ccccc23)NC(=O)[C@H](Cc2ccc(O)cc2)NC(=O)[C@@H](NC(=O)[C@@H](Cc2ccccc2)NC(=O)[C@H](CCCCNC(=O)[C@@H](N)Cc2ccc(O)c(O)c2)NC(=O)[C@@H](N)Cc2ccc(O)c(O)c2)CSSC[C@@H](C(=O)N[C@H](C(N)=O)[C@@H](C)O)NC1=O` [Example 18] (H-[Dopa]K(Dopa)[dF]CY[dW]K[Abu]CT-NH2; disulfide 4-9) were, in that order, 0.36 nM, 167 nM, 32 nM, 1000 nM and 3000 nM.

The values above are taken from US20110065632A1, “PHARMACEUTICAL COMPOSITIONS OF SOMATOSTATIN-DOPAMINE CONJUGATES” (priority 2008, published 2011).
